# Data taken from patent publication US20030008024A1, “Therapeutic composition of herbal extracts and the uses thereof” (Advanced Herbal Therapeutics, Inc., priority 2001, published 2003).
# Read-outs that look alike come from different tables or passages of the source.
# How the values were obtained:
# [1] = test system: writhing reaction of mice; test: Writhing reaction induced by HAC; type: in vivo, Kunming mice; settings: 0.01 g/kg once daily 3 days; first 20 minutes
# Method: A total of 50 Kunming mice weighing 18-22 g with equal sex distribution were randomly divided into 5 groups. The mice were treated p.o. with different doses of AHT-323, tragacanth, or Morphine hydrochloride once daily for 3 days. One hour later, each mouse was treated with 0.2 ml saline containing 0.7% HAC, i.p. The time to first writhing and the number of writhing during the first 20 minutes were evaluated.
# [2] = test system: plaque forming cells (PFC) and serum IgM of AA mice; test: Humoral immunity of AA mice (PFC, IgM); type: in vivo, NIH mice; settings: 0.020 g/kg
# Method: An experimental model of adjuvant arthritis was established in NIH mice weighing 20±2 g by intradermal injection of 0.05 ml Freund's Complete Adjuvant (FCA) to the planter of hind paw. Three weeks later, the mice were treated with different dose of AHT-323 for 5 days. At the same time, they were sensitized with 0.5 ml 10% SRBC i.p. The mice were sacrificed 5 days later. The spleen cells were prepared and the plaque forming cells (PFC) were measured, the serum was prepared and IgM was determined.
# NK cells = NK cells activity of mouse splenocytes (colorimetry); type: in vivo, ICR mice; settings: 0.02 g/kg once daily ten days
# Method: (§1) Totals of 50 ICR mice weighing 18˜22 g with equal sex distribution were randomly divided into five groups. The mice were administrated orally with different doses of AHT-323 or positive control drug respectively, once daily for consecutive ten days. 24 hours after the last dosing, the mice were sacrificed and splenocyte suspension was prepared for measurement of CD4 and CD8 content and NK cells activity.
# IL-1 = IL-1 activity in peritoneal macrophages after oral dosing (radio-ELISA); type: in vivo, NIH mice; settings: 0.02 g/kg p.o. once daily 10 days
# Method: (§2) Totals of 50 NIH mice weighing 18-22g with equal sex distribution were divided into 5 groups and administered p.o. with different doses of AHT-323 or cyclophosphamide once daily for 10 days. 24h after the last dosing, mice were sacrificed and peritoneal macrophage and spleen cells suspension were prepared to measure IL-1 and IL-6 activity, respectively.
# Method of testing IL-1: IL-1 activity in peritoneal macrophages was measured with radio-ELISA and the result was shown in Table 18.
# [3] = test system: DTH of mice induced by DNFB; test: Delayed type hypersensitivity of mouse ear induced by DNFB; type: in vivo, NIH mice
# Method: Totals of 50 NIH mice with equal sex were randomly divided into 5 groups. Each mouse was sensitized with 0.025 ml DNBF (1%) at day 0. Five days later […], 0.01 ml DNFB was pasted as aggression on the right ear. The mice were sacrificed 24 hours later and the weight of left and right ears were measured, the difference of which was used to evaluate reaction intensity of the delayed type hypersensitivity (DTH) of the mice.
# In this experiment, AHT-323 was given for consecutive six days (0˜5 days) from the day when the mice were first sensitized with DNFB.
# Totals of 60 NIH mice were used. AHT-323 treatments were given at different intervals as the following: from d-2 (2 days before first sensitizing) to Day 0 (first sensitization day), from Day-2 to Day 2 (2 days after first sensitizing), from Day-2 to Day5, and from Day 0 to Day 4, respectively. The swelling rate of mouse ear was determined.
# Another 50 NIH mice were used to compare AHT-323 with cyclophosphamide or cytoxan (Cy) on the effects on DTH of mice. The mice were treated with either AHT-323 or Cy alone or both at different intervals.
# [4] = test system: hemolysin antibody formation; test: Hemolysin antibody formation in SRBC-immunized normal mice; type: in vivo, mice (NIH, ICR, KM); settings: dosing day 0˜7; for Hymolysin Antibody / inhibition at 20 mg/kg: 0.02 g/kg
# Method: Totals of 150 mice (50 NIH mice, 50 ICR mice and 50 KM mice) weighing 18-22 g with equal sex distribution were divided into 10 groups, each of which was immunized with 0.2 ml 5% sheep red blood cells (SRBC) i.p. once. AHT-323 was given from d0 to d6. Seven days after immunization, mice were sacrificed and blood was taken from the eyeball. Assay for hemolysin antibody formation was performed and its inhibition rate was evaluated.
# IL-6 = IL-6 activity in splenocytes after oral dosing (ELISA); type: in vivo, NIH mice; settings: 0.02 g/kg p.o. once daily 10 days
# Method: as §2
# IL-2 = IL-2 activity after oral dosing (IL-2 dependent CTLL cells); type: in vivo, ICR mice; settings: 0.02 g/kg once daily 10 days
# Method: (§3) Total of 50 ICR mice weighing 18˜22 g with equal sex were divided into 5 groups. The mice were administrated orally with different doses of AHT-323 or control (0.5% tragacanth) once daily for 10 days. 24 hours after the last dosing, the peritoneal macrophage suspensions were prepared to measure TNFα content and IL-2 activity.
# The IL-2 activity of macrophage was measured with IL-2 dependent CTLL cells by ELISA.
# [5] = test system: splenocyte lymphocytes stimulated by Con A; test: Lymphocyte blastogenesis of normal mice stimulated by Con A (3H-TdR); type: in vivo, NIH mice; settings: 0.02 g/kg p.o. once daily 10 days
# Method: 50 NIH mice with equal sex distribution were randomly divided into 5 groups. The mice were treated p.o. with different doses of AHT-323 or positive control drug once daily for 10 days. Twenty four hours after the last dosing, mice were sacrificed. The splenocytes were obtained and Con A (Concanavalin) was used to stimulate lymphocytes for transformation. ^3H-TdR adulteration method was used and the result was shown in table 20.
# TNFα = TNFα content of peritoneal macrophage suspension after oral dosing (ELISA); type: in vivo, ICR mice; settings: 0.02 g/kg once daily 10 days
# Method: as §3
# An ELISA assay was performed using anti-TNFα monoclonal antibody. The TNFα concentration was calculated based on the OD value at 450 nm.
# CD4 and CD8 = CD4 and CD8 content of mouse splenocytes (biotin-labeled ELISA); type: in vivo, ICR mice; settings: 0.02 g/kg once daily ten days
# Method: as §1
# [6] = Mus musculus, 0 h, read-out: Inhibition rate (%)
# [7] = Table 11, 0.1×3 g/kg, dosing day 0, 2, 4 each
compound,measurement,setting,value
"CN1CC[C@]23c4c5ccc(O)c4O[C@H]2[C@@H](O)C=C[C@H]3[C@H]1C5.Cl [Morphine, Morphine hydrochloride]",Torsion number,[1],0.0 ± 0.0
"O=P1(N(CCCl)CCCl)NCCCO1 (stereo not drawn) [Cy, cyclophosphamide]",IgM (Log2),[2],6.950 ± 0.597 Log2
same,PFC (OD415),[2],0.835 ± 0.015 OD415
same,NK Activity,NK cells,23.10 ± 3.66
same,IL-1,IL-1,44.5 ± 7.7 ng/mL
same,inhibition at 20 mg/kg,[3]; [6],64.9%
same,inhibition at 25 mg/kg,[3]; [6],29%
same,inhibition at 250 mg/kg,"[3]; Mus musculus, read-out: Inhibition rate (%)",-10.6%
same,% of ear Swelling,"[3]; Table 9, 0.020 g/kg, dosing day 0˜5",5.4 ± 2.6%
same,% of ear Swelling,"[3]; Table 10, 0.025 g/kg, dosing day 0˜5",32.8 ± 7.9%
same,% of ear Swelling,[3]; [7],24.10 ± 7.28%
same,Inhibition rate (%),[3]; [7],39.8%
same,% of ear Swelling,"[3]; Table 11, 0.25 g/kg, dosing day −3",44.3 ± 7.9%
same,Hymolysin Antibody,[4]; ICR mice,28 ± 7
same,Hymolysin Antibody,[4]; KM mice,46 ± 18
same,inhibition at 20 mg/kg,"[4]; Mus musculus, 0 h, ICR mice, read-out: Inhibition Rate (%)",77.4%
same,inhibition at 20 mg/kg,"[4]; Mus musculus, 0 h, KM mice, read-out: Inhibition Rate (%)",81.1%
same,inhibition at 250 mg/kg,"[4]; Mus musculus, 0 h, NIH mice, 0.25 g/kg, read-out: Inhibition Rate (%)",75.4%
same,Hemolysin Antibody (HC50),"[4]; NIH mice, 0.25 g/kg",33 ± 8
same,IL-6,IL-6,49.6 ± 6.7 IU/ml
same,IL-2,IL-2,10.1 ± 3.0 IU/ml
same,Cpm,[5],9922 ± 1145 Cpm
same,Stimulate Index,[5],13.06 ± 2.28
same,TNFα,TNFα,42.2 ± 9.6 pg/mL
same,CD4 (%),CD4 and CD8,11.50 ± 2.50 %
same,CD4/CD8,CD4 and CD8,2.91 ± 0.53
same,CD8 (%),CD4 and CD8,4.10 ± 1.20 %
